Here are results for 13 compounds from patent publication US6833456B2, “Indolyl-urea derivatives of thienopyridines useful as antiangiogenic agents, and methods for their use” (Agouron Pharmaceuticals, Inc., priority 2002, dated 2004).

The target in data set [1] is T1, unphosphorylated VEGF-R2Δ50 (FLVK) (Homo sapiens, UniProt P35968, DEL940-989/E990V).
T1 construct: VEGF-R2Δ50 contains residues 806-939 and 990-1171; made in house; host or cells: baculovirus/insect cell system
Kind of data set: VEGF-R2 coupled spectrophotometric assay, unphosphorylated construct (FLVK). The data set is classed as biochemical. Particulars: for inhibition at 0.05 µM: percent inhibition at 50 nM. From the text: This construct determines the ability of a test compound to inhibit tyrosine kinase activity. A construct (VEGF-R2Δ50) of the cytosolic domain of human vascular endothelial growth factor receptor 2 (VEGF-R2) lacking the 50 central residues of the 68 residues of the kinase insert domain was expressed in a baculovirus/insect cell system. Of the 1356 residues of full-length VEGF-R2, VEGF-R2Δ50 contains residues 806-939 and 990-1171, and also one point mutation (E990V) within the kinase insert domain relative to wild-type VEGF-R2. Autophosphorylation of the purified construct was performed by incubation of the enzyme at a concentration of 4 μM in the presence of 3 mM ATP and 40 mM MgCl2 in 100 mM HEPES, pH 7.5, containing 5% glycerol and 5 mM DTT, at 4° C. for 2 h. […] See Parast et al., Biochemistry, 37, 16788-16801 (1998).
The production of ADP from ATP that accompanies phosphoryl transfer was coupled to oxidation of NADH using phosphoenolpyruvate (PEP) and a system having pyruvate kinase (PK) and lactic dehydrogenase (LDH). The oxidation of NADH was monitored by following the decrease of absorbance at 340 nm ([…]=6.22 cm^−1 mM^−1) using a Beckman DU 650 spectrophotometer. Assay conditions for phosphorylated VEGF-R2Δ50 (indicated as FLVK-P in the tables below) were the following: 1 mM PEP; 250 μM NADH; 50 units of LDH/mL; 20 units of PK/mL; 5 mM DTT; […]; 1 mM ATP; and 25 mM MgCl2 in 200 mM HEPES, pH 7.5. Assay conditions for unphosphorylated VEGF-R2Δ50 (indicated as FLVK in the tables) were the following: 1 mM PEP; 250 μM NADH; 50 units of LDH/mL; 20 units of PK/mL; 5 mM DTT; […]; 3 mM ATP; and 60 mM MgCl2 and 2 mM MnCl2 in 200 mM HEPES, pH 7.5. Assays were initiated with 5 to 40 nM of enzyme. Ki values were determined by measuring enzyme activity in the presence of varying concentrations of test compounds. The percent inhibition at 50 nm (% inhibition@ 50 nm) was determined by linear least-squares regression analysis of absorbance as a function of time. The binding inhibitions were fitted to equation as described by Morrison. The data were analyzed using Enzyme Kinetic and Kaleidagraph software.

Data set [2] is described as follows: Mouse PK assay. It is filed as in vivo, B6 female mice. Particulars: po. The procedure: The pharmacokinetics (e.g., absorption and elimination) of drugs in mice were analyzed using the following experiment. Test compounds were formulated as a suspension in a 30:70 (PEG 400: acidified H2O) vehicle. This solution was administered orally (p.o.) and intraperitoneally (i.p.) at 50 mg/kg to two distinct groups (n=4) of B6 female mice. Blood samples were collected via an orbital bleed at time points: 0 hour (pre-dose), 0.5 hr, 1.0 hr, 2.0 hr, and 4.0 hr post dose. Plasma was obtained from each sample by centrifugation at 2500 rpm for 5 min. Test compound was extracted from the plasma by an organic protein precipitation method. For each time bleed, 50 μL of plasma was combined with 1.0 mL of acetonitrile, vortexed for 2 min. and then spun at 4000 rpm for 15 min. to precipitate the protein and extract out the test compound. Next, the acetonitrile supernatant (the extract containing test compound) was poured into new test tubes and evaporated on a hot plate (25° C.) under a steam of N2 gas. To each tube containing the dried test compound extract, 125 μL of mobile phase (60:40, 0.025 M NH4H2PO4+2.5 mL/L TEA:acetonitrile) was added. The test compound was resuspended in the mobile phase by vortexing and more protein was removed by centrifugation at 4000 rpm for 5 min. Each sample was poured into an HPLC vial for test compound analysis on an Hewlett Packard 1100 series HPLC with UV detection. From each sample, 95 μL was injected onto a Phenomenex-Prodigy reverse phase C-18, 150×3.2 mm column and eluted with a 45-50% acetonitrile gradient run over 10 min. Test-compound plasma concentrations (μg/mL) were determined by a comparison to standard curve (peak area vs. conc. μg/mL) using known concentrations of test compound extracted from plasma samples in the manner described above. Along with the standards and unknowns, three groups (n=4) of quality controls (0.25 μg/mL, 1.5 μg/mL, and 7.5 μg/mL) were run to insure the consistency of the analysis. […] The quantitated test samples were plotted for visual display using Kaleidagraph software and their pharmacokinetic parameters were determined using WIN NONLIN software.

Data set [3] concerns the target T2, PDGFRβ (Homo sapiens, UniProt P09619).
T2 construct: expressed in transfected cells; host or cells: porcine aorta endothelial (PAE) cells
Kind of data set: PAE-PDGFRβ phosphorylation in PAE-PDGFRB cells assay. It is filed as cell-based. The settings on record: PAE cells overexpressing human PDGFRβ, PDGF-BB stimulated; read-out: PAE PDGFR autophos IC50. The procedure:
This assay determines the ability of a test compound to inhibit the autophosphorylation of PDGFRβ in porcine aorta endothelial (PAE)-PDGFRβ cells. PAE cells that overexpress human PDGFRβ were used in this assay. The cells were cultured in Ham's F12 media supplemented with 10% fetal bovine serum (FBS) and 400 ug/ml G418. Twenty thousands cells were seeded in each well of a 96-well plate in 50 μL of growth media and allowed to attach for 6 hours at 37° C. Cells were then exposed to the starvation media (Ham's F12 media supplemented with 0.1% FBS) for 16 hours. After the starvation period was over, 10 μL of test agent in 5% DMSO in starvation media were added to the test wells and 10 μL of the vehicle (5% DMSO in starvation media) were added into the control wells. The final DMSO concentration in each well was 0.5%. Plates were incubated at 37° C. for 1 hour and the cells were then stimulated with 1 μg/mL PDGF-BB (R & D System) in the presence of 2 mM Na3VO4 for 8 minutes. The cells were washed once with 1 mm Na3VO4 in HBSS and lysed by adding 50 μL per well of lysis buffer. One hundred μL of dilution buffer were then added to each well and the diluted cell lysate was transferred to a 96-well goat ant-rabbit coated plate (Pierce), which was pre-coated with Rabbit anti Human PDGFRβ antibody (Santa Cruz). The plates were incubated at room temperature for 2 hours and washed seven times with 1% Tween 20 in PBS. HRP-PY20 (Santa Cruz) was diluted and added to the plate for a 30-minute incubation. Plates were then washed again and TMB peroxidase substrate (Kirkegaard & Perry) was added for a 10-minute incubation. One hundred μL of 0.09 N H2SO4 was added into each well of the 96-well plate to stop the reaction. Phosphorylation status was assessed by spectrophotometer reading at 450 nm. IC50 values were calculated by curve fitting using a four-parameter analysis.

SMILES strings stand for the structures. pIC50, pKi: −log10 of the molar value.

T1 sequence (P35968 with tags, fused parts or gaps DEL940-989/E990V limits assumed): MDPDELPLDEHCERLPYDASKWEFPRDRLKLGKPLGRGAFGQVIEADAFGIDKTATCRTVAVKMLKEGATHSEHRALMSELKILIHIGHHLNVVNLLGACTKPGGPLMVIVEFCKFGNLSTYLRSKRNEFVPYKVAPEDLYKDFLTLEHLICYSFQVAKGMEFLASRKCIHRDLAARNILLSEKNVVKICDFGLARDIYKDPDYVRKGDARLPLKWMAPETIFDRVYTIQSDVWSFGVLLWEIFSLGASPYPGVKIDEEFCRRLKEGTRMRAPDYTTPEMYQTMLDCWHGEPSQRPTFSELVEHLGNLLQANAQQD
T2 sequence (P09619 33-1106): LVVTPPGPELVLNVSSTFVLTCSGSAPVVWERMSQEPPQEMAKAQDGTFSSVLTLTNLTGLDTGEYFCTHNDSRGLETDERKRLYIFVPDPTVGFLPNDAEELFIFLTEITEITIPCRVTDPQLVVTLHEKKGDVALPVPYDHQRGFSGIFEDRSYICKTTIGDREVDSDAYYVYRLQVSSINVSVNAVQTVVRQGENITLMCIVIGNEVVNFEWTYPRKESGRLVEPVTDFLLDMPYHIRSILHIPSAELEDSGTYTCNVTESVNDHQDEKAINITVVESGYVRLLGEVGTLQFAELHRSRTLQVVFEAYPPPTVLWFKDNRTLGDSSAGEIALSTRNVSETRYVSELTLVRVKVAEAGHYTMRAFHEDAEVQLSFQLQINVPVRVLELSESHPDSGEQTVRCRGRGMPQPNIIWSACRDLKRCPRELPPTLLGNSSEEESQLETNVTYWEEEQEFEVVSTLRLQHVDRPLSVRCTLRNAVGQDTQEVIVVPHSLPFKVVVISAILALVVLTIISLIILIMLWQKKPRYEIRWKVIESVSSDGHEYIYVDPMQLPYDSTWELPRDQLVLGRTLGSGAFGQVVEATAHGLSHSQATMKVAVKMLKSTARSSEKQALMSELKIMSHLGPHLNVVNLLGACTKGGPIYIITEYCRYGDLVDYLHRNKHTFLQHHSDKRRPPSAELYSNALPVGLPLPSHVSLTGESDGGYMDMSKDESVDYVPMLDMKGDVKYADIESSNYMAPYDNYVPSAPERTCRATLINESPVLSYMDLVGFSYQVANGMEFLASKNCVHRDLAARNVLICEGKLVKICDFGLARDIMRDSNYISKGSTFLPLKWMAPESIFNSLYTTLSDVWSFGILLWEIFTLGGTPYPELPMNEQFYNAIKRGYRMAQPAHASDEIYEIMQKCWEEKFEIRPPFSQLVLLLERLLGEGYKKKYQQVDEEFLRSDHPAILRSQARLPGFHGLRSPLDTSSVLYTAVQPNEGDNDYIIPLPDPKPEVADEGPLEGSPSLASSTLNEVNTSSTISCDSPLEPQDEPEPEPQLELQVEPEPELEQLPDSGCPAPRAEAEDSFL

What is called pKi is −log10 of the Ki, conventionally taken in molar units. A lower pKi goes with a large Ki. The term inhibition denotes the drop in the measured response relative to a control, in per cent. Low values mean a weak effect, high ones a strong effect. In data set [1], `C#CCNC(=O)n1c(C)cc2c(F)c(Oc3ccnc4cc(C(=O)N5CCC(O)C5)sc34)ccc21` (stereo in doubt) [Example 5k, 4-Fluoro-5-[2-(3R-hydroxy-pyrrolidine-1-carbonyl)-thieno[3,2-b]pyridin-7-yloxy]-2-methyl-indole-1-carboxylic acid prop-2-ynylamide] had a pKi of 9.83 and an inhibition at 0.05 µM of 99%. Moreover, the “Mouse Cmin, po” value in data set [2] came to 16470 ng/mL.
Usually pIC50 stands for the IC50 on a negative log10 scale, so that one unit is a factor of ten. In data set [1], `C#CCNC(=O)n1c(C)cc2cc(Nc3ccnc4cc(C(=O)N5CC[C@H](OC)C5)sc34)ccc21` [Example 1h, 5-[2-(3S-Methoxy-pyrrolidine-1-carbonyl)-thieno[3,2-b]pyridin-7-ylamino]-2-methyl-indole-1-carboxylic acid prop-2-ynylamide] had a pKi of 8.91 and an inhibition at 0.05 µM of 94%. Moreover, in data set [3], the pIC50 was 7.24.
For `CNC(=O)n1c(C)cc2cc(Oc3ccnc4cc(-c5nc(CO)cs5)sc34)ccc21` [Example 3m], in data set [1], the pKi was 9.70 and the inhibition at 0.05 µM turned out to be 83%. The pIC50 in data set [3] is 8.61.
For orientation: AUC means concentration integrated over time. Read a low AUC as less exposure. For `COC[C@H]1CCCN1C(=O)c1cc2nccc(Oc3ccc4[nH]c(C)c(C(=O)NC5CC5)c4c3)c2s1` [Example 4y, 5-[2-(2R-Methoxymethyl-pyrrolidine-1-carbonyl)-thieno[3,2-b]pyridin-7-yloxy]-2-methyl-1H-indole-3-carboxylic acid cyclopropylamide], in data set [1], the pKi was 7.62 and the inhibition at 0.05 µM is 10%. The AUC in data set [2] (female, B6, mouse, plasma, 50 mg/kg) was found to be 383 ng·h/mL. Besides, the Cmax in data set [2] (female, B6, mouse, plasma, 50 mg/kg, p.o., 50 mg/kg, read-out: Mouse Cmax, po ng-h/mL) is 265 ng/mL. Besides, the “Mouse Cmin, po” value in data set [2] is 11 ng/mL.
In data set [1], `C#CCNC(=O)n1c(C)cc2c(F)c(Oc3ccnc4cc(C(=O)N5CC[C@@H](OC)C5)sc34)ccc21` [Example 5o, 4-Fluoro-5-[2-((R)-3-methoxy-pyrrolidine-1-carbonyl)-thieno[3,2-b]pyridin-7-yloxy]-2-methyl-indole-1-carboxylic acid prop-2-ynylamide] gave a pKi of 10.05 and an inhibition at 0.05 µM of 99%. In data set [3], the pIC50 is 8.44.
In data set [1], `CNC(=O)n1c(C)cc2cc(Nc3ccnc4cc(C(=O)N5CC(F)[C@H](O)C5)sc34)ccc21` (stereo partly drawn) [Example 7b, 5-[(2-{[(4R)-3-Fluoro-4-hydroxypyrrolidin-1-yl]carbonyl}thieno[3,2-b]pyridin-7-yl)amino]-N,2-dimethyl-1H-indole-1-carboxamide] had a pKi of 9.39 and an inhibition at 0.05 µM of 95%. Also, the pIC50 in data set [3] was less than 6.00.
For `CNC(=O)c1c(C)n(C(=O)NC)c2ccc(Oc3ccnc4cc(C(=O)N5CC[C@@H](N(C)C)C5)sc34)cc12` [Example 8a, 5-[(2-{[(3R)-3-(Dimethylamino)pyrrolidin-1-yl]carbonyl}thieno[3,2-b]pyridin-7-yl)oxy]-N,N′,2-trimethyl-1H-indole-1,3-dicarboxamide], in that order: 8.34, 68% and less than 6.00.
In data set [1], `CCC(=O)n1c(C)cc2cc(Oc3ccnc4cc(C(=O)N5CC[C@H](O)C5)sc34)ccc21` [Example 10b, (3S)-1-({7-[(2-Methyl-1-propionyl-1H-indol-5-yl)oxy]thieno[3,2-b]pyridin-2-yl}carbonyl)pyrrolidin-3-ol] showed a pKi of 8.56 and an inhibition at 0.05 µM of 90%.
For `CCOC(=O)c1cc2ncnc(Nc3ccc4c(c3)cc(C)n4C(=O)NC)c2s1` [Example 11a, 4-(2-Methyl-1-methylcarbamoyl-1H-indol-5-ylamino)-thieno[3,2-b]pyrimidine-6-carboxylic acid ethyl ester], in that order: 7.42 and 20%.
Taken in the same sequence, the figures for `CNC(=O)n1c(C)cc2cc(Nc3ncnc4cc(C(=O)N5CCC[C@H]5COC)sc34)ccc21` [Example 11b, 5-[6-(2-Methoxymethyl-pyrrolidine-1-carbonyl)-thieno[3,2-b]pyrimidin-4-ylamino]-2-methyl-indole-1-carboxylic acid methylamide] were 7.54 and 18%.
For `CCOC(=O)c1cc2c(Nc3ccc4c(c3)cc(C)n4C(=O)NC)ncnc2s1` [Example 12a, 4-(2-Methyl-1-methylcarbamoyl-1H-indol-5-ylamino)-thieno[2,3-b]pyrimidine-6-carboxylic acid ethyl ester], in that order: 6.62 and 0%.
In data set [1], `CNC(=O)n1c(C)cc2cc(Nc3ncnc4sc(C(=O)N5CCC[C@H]5COC)cc34)ccc21` [Example 12b, 5-[6-(2-Methoxymethyl-pyrrolidine-1-carbonyl)-thieno[2,3-b]pyrimidin-4-ylamino]-2-methyl-indole-1-carboxylic acid methylamide] gave a pKi of 6.85 and an inhibition at 0.05 µM of 5%. Further, in data set [3], the pIC50 is less than 6.00.
In data set [1], `CCOC(=O)c1cc2c(Oc3ccc4c(c3)cc(C)n4C(=O)NC)ncnc2s1` [Example 12c, 4-(2-Methyl-1-methylcarbamoyl-1H-indol-5-yloxy)-thieno[2,3-b]pyrimidine-6-carboxylic acid ethyl ester] showed a pKi of 7.46 and an inhibition at 0.05 µM of 14%.
